Source: US9963452B2, “Methods, compounds, and compositions for inhibition of ROS” (AUGUSTA PHARMACEUTICALS INC., priority 2013, dated 2018)
pEC50: −log10 of the molar value.

Key:
Type in all cases: cell-based
[1] = test system: U138 glioblastoma cell line; assay: In-vitro cell survival assay (Alamar blue), U138; settings: U138, one day after compound addition
Description: (§1) Five tumor-derived cell lines were treated with the ROS inhibitor compounds and cell survival was monitored to determine the cancer prohibition effects of the compounds. The cell lines included HeLa, a cervical cancer cell line, and four glioblastoma cell lines U138, U87, LN18, and U118. The basic protocol for the in-vitro cell survival assay is the same for all five cell lines. In particular, the cells were seeded in 96-well plates at 2-5×10^3 cells/well (cell line dependent) in culture medium. The cells were grown for 2 days before the compounds were dissolved in DMSO and added to final concentrations of 100 uM, 10 uM, or 1 uM (DMSO final concentration 0.5%). The cell culture was then assayed one day after the addition of the compounds. The assay used Alamar blue as a redox-sensitive dye that interrogates mitochondrial fitness of cells, and these assays provided a readout for cell proliferation and viability. The raw values were normalized to an average of several vehicle control wells and are presented as percent decrease in proliferation/viability, which is converted to half maximal effective concentration (EC50) values.

[2] = test system: U118 glioblastoma cell line; assay: In-vitro cell survival assay (Alamar blue), U118; settings: U118, one day after compound addition
Description: as §1

[3] = test system: HeLa cervical cancer cell line; assay: In-vitro cell survival assay (Alamar blue), HeLa; settings: one day after compound addition
Description: as §1

[4] = test system: LN18 glioblastoma cell line; assay: In-vitro cell survival assay (Alamar blue), LN18; settings: LN18, one day after compound addition
Description: as §1

[5] = test system: U87 glioblastoma cell line; assay: In-vitro cell survival assay (Alamar blue), U87; settings: U87, one day after compound addition
Description: as §1

| SMILES | pEC50 [1] | pEC50 [2] | pEC50 [3] | pEC50 [4] | pEC50 [5] | pEC50 ([1]; 24 h) | pEC50 ([2]; 24 h) | pEC50 ([3]; Homo sapiens, 24 h) | pEC50 ([4]; Homo sapiens, LN-18, 24 h) | pEC50 ([5]; 24 h) |
| --- | --- | --- | --- | --- | --- | --- | --- | --- | --- | --- |
| Cc1cc(C)c(NC(=O)c2cc3ccccc3c(=O)s2)c(-c2cc(C)[nH]n2)c1 [drawing 400] | < 4.00 | < 4.00 | < 4.00 | < 4.00 | < 4.00 | – | – | – | – | – |
| CCOC(=O)c1ccc(NC(=O)CCn2ccc3ccccc32)cc1 [drawing 473] | – | – | – | – | – | < 4.00 | < 4.00 | < 4.00 | – | – |
| CC(C)c1nc(Nc2ccc3ncsc3c2)nc(N2CCOCC2)n1 [drawing 452] | – | – | – | – | – | 4.10 | – | 4.00 | 4.10 | < 4.00 |
| O=C(CC1=Nc2cccc3cccc(c23)NC1=O)NCc1cccc(I)c1 [drawing 483] | – | – | – | – | – | < 4.00 | 4.29 | 5.00 | – | – |
| O=C(CCn1ccc2ccccc21)Nc1cnccn1 [drawing 477] | – | – | – | – | – | 4.04 | 4.48 | 4.19 | – | – |
| CC(C)c1nc(Nc2ccc(C(=O)NCc3ccccc3)cc2)nc(Nc2cccc(Cc3nc4ccccc4s3)c2)n1 [drawing 453] | – | – | – | – | – | < 4.00 | – | < 4.00 | < 4.00 | < 4.00 |
| COc1ccc(C2=CCNCC2)cc1Nc1nccc(Nc2ccc3ncsc3c2)n1 [drawing 467] | – | – | – | – | – | 5.16 | – | 4.82 | 4.82 | 4.74 |
| Nc1cccc(C2CCN(c3nccc(Nc4ccc5ncsc5c4)n3)CC2)c1 [drawing 439] | – | – | – | – | – | 5.30 | – | 5.22 | 4.82 | 4.85 |
| O=C(CCn1ccc2ccccc21)Nc1ccc(F)cc1 [drawing 475] | – | – | – | – | – | < 4.00 | < 4.00 | < 4.00 | – | – |
| COc1ccc(NC(=O)CCn2ccc3ccccc32)cc1 [drawing 474] | – | – | – | – | – | < 4.00 | < 4.00 | 4.52 | – | – |
| O=C(c1ccc(Nc2ncc(Cl)c(Nc3ccc4ncsc4c3)n2)cc1)N1CCCCC1 [drawing 443] | – | – | – | – | – | < 4.00 | – | < 4.00 | < 4.00 | < 4.00 |
| O=C(O)c1ccc(Nc2ncc(Cl)c(Nc3ccc4ncsc4c3)n2)cc1 [drawing 445] | – | – | – | – | – | 4.00 | – | 5.30 | 4.74 | < 4.00 |
| O=C(NCC1CCNCC1)c1cccc(Nc2ncc(Cl)c(Nc3ccc4ncsc4c3)n2)c1 [drawing 471] | – | – | – | – | – | 4.10 | – | 4.52 | 4.52 | 4.10 |
| CC(C)c1nc(Nc2ccc(C(=O)NCC3CCCCC3)cc2)nc(Nc2cccc(Cc3nc4ccccc4s3)c2)n1 [drawing 454] | – | – | – | – | – | < 4.00 | – | < 4.00 | < 4.00 | < 4.00 |
| CN1CCN(C(=O)c2ccc(Nc3ncc(Cl)c(Nc4ccc5ncsc5c4)n3)cc2)CC1 [drawing 444] | – | – | – | – | – | 4.55 | – | 4.92 | 4.66 | 4.82 |
| Cc1ccc(NC(=O)CCn2ccc3ccccc32)cc1 [drawing 472] | – | – | – | – | – | < 4.00 | < 4.00 | < 4.00 | – | – |
| CC(C)(C)OC(=O)NC1CCN(C(=O)c2ccc(Nc3ncc(Cl)c(Nc4ccc5ncsc5c4)n3)cc2)CC1 [drawing 446] | – | – | – | – | – | 5.05 | – | 4.82 | 4.74 | 4.10 |
| CC(C)c1nc(Nc2ccc(C(=O)N3CCCC3)cc2)nc(Nc2ccc3ncsc3c2)n1 [drawing 457] | – | – | – | – | – | 4.66 | – | 5.40 | 4.70 | 4.52 |
| CN1CCN(C(=O)c2cccc(Nc3ncc(Cl)c(Nc4ccc5ncsc5c4)n3)c2)CC1 [drawing 466] | – | – | – | – | – | 4.82 | – | 5.70 | 4.82 | 4.62 |
| C1=C(c2cccc(Nc3nccc(Nc4ccc5ncsc5c4)n3)c2)CCNC1 [drawing 441] | – | – | – | – | – | 4.60 | – | 4.89 | 4.66 | 4.40 |

| SMILES | pEC50 [1] | pEC50 [2] | pEC50 [3] | pEC50 [4] | pEC50 [5] | pEC50 ([1]; 24 h) | pEC50 ([2]; 24 h) | pEC50 ([3]; Homo sapiens, 24 h) | pEC50 ([4]; Homo sapiens, LN-18, 24 h) | pEC50 ([5]; 24 h) |
| --- | --- | --- | --- | --- | --- | --- | --- | --- | --- | --- |
| CC(C)c1nc(Nc2ccc(C(=O)NC3CCCCC3)cc2)nc(Nc2ccc3ncsc3c2)n1 [drawing 456] | – | – | – | – | – | 4.40 | – | 4.55 | 4.52 | 4.35 |
| Cc1cc(-c2ccccc2)c2ccc(N)nc2n1 [drawing 480] | – | – | – | – | – | 4.34 | < 4.00 | 4.24 | – | – |
| Nc1cccc2cccc(N=C(CC(=O)O)C(=O)O)c12 [drawing 481] | – | – | – | – | – | < 4.00 | < 4.00 | 4.20 | – | – |
| CC(C)c1nc(Nc2ccc(N)cc2)nc(Nc2cc(C3CC3)[nH]n2)n1 [drawing 461] | – | – | – | – | – | 5.10 | – | 4.85 | 4.40 | 4.46 |
| CC(C)c1nc(Nc2ccc3ncsc3c2)nc(N2CCCC2)n1 [drawing 451] | – | – | – | – | – | 4.55 | – | 4.52 | 4.40 | < 4.00 |
| Brc1cccc(Nc2nccc(Nc3ccc4ncsc4c3)n2)c1 [drawing 442] | – | – | – | – | – | < 4.00 | – | < 4.00 | < 4.00 | < 4.00 |
| NCC1CCN(C(=O)c2ccc(Nc3ncc(Cl)c(Nc4ccc5ncsc5c4)n3)cc2)CC1 [drawing 463] | – | – | – | – | – | 4.10 | – | 4.15 | 4.00 | < 4.00 |
| NCC1CCN(C(=O)c2cccc(Nc3ncc(Cl)c(Nc4ccc5ncsc5c4)n3)c2)CC1 [drawing 470] | – | – | – | – | – | 4.70 | – | 5.52 | 4.72 | 4.74 |
| COc1ccc(NC(=O)CC2=Nc3cccc4cccc(c34)NC2=O)cc1 [drawing 482] | – | – | – | – | – | < 4.00 | < 4.00 | 4.77 | – | – |
| O=C(O)c1cccc(Nc2ncc(Cl)c(Nc3ccc4ncsc4c3)n2)c1 [drawing 462] | – | – | – | – | – | 4.00 | – | 4.82 | 4.40 | < 4.00 |
| NC1CCN(C(=O)c2ccc(Nc3ncc(Cl)c(Nc4ccc5ncsc5c4)n3)cc2)CC1 [drawing 464] | – | – | – | – | – | 4.22 | – | 4.52 | 4.40 | 4.40 |
| COc1ccc(C(F)(F)F)cc1NC(=O)CCn1ccc2ccccc21 [drawing 476] | – | – | – | – | – | 4.01 | 4.33 | < 4.00 | – | – |
| c1cc(Nc2nccc(Nc3ccc4ncsc4c3)n2)cc(C2CCNCC2)c1 [drawing 440] | – | – | – | – | – | 4.60 | – | 4.82 | 4.74 | 4.46 |
| CCc1cc(Br)ccc1NC(=O)CCn1ccc2ccccc21 [drawing 478] | – | – | – | – | – | < 4.00 | < 4.00 | 4.37 | – | – |
| NC1CCN(C(=O)c2cccc(Nc3ncc(Cl)c(Nc4ccc5ncsc5c4)n3)c2)CC1 [drawing 469] | – | – | – | – | – | 4.60 | – | 4.70 | 4.40 | 4.46 |
| O=C(c1cccc(Nc2ncc(Cl)c(Nc3ccc4ncsc4c3)n2)c1)N1CCCCC1 [drawing 465] | – | – | – | – | – | 4.82 | – | 5.15 | 4.85 | 4.92 |
| NC(Cc1ccccc1)C(=O)n1ccc2cccnc21 (stereo not shown) [drawing 479] | – | – | – | – | – | < 4.00 | < 4.00 | 4.35 | – | – |
| CC(C)c1nc(Nc2ccc(C(=O)NCc3ccccc3)cc2)nc(Nc2ccc3ncsc3c2)n1 [drawing 459] | – | – | – | – | – | 4.10 | – | 4.46 | 4.10 | 4.00 |
| CC(C)c1nc(Nc2ccc(C(=O)N3CCN(C)CC3)cc2)nc(Nc2ccc3ncsc3c2)n1 [drawing 458] | – | – | – | – | – | 4.55 | – | 4.52 | 4.40 | 4.46 |
